Measured values: patent publication US4497816A, “7-(4-Pyridyl)-1,8-naphthyridine derivatives and their antibacterial compositions” (Dainippon Pharmaceutical Co., Ltd., priority 1982, dated 1985)
In brackets after ≈: the same amount, converted by molar mass.

Columns and labels:
[1] = Acute oral toxicity in mice; settings: mouse, in vivo, female mice (ddY), deaths counted after 7 days
Experimental: *^5 Acute oral toxicity in mice
A suspension containing compound 1 in various
concentrations was orally given to female mice
(ddY) at a volume of 0.1 ml per 10 g of body weight.
The number of dead mice was counted after 7 days,
and the value of median lethal dose (LD50) was
calculated in accordance with the Behrens-Kaerber

[2] = tested on: Pseudomonas aeruginosa No. 12; assay: In vivo efficacy against the systemic infections in mice (Pseudomonas aeruginosa); design: species or system mice (male ddY); settings: Pseudomonas aeruginosa No. 12, intraperitoneal infection; oral, twice, about 5 minutes and 6 hours after infection
Experimental: (§1) Compounds 1, A and NA were each suspended in a 0.2%
(§2) aqueous solution of sodium carboxymethylcellulose.
(§3) Each of the solutions was orally administered to
(§4) mice infected with each of the test organisms under
(§5) the conditions described below, and the median
(§6) effective dose (ED50) was calculated in accordance
(§7) with the Behrens-Kaerber method [Arch. Exp. Path.
(§8) Experimental conditions:
(§9) Mice: Male mice (ddY) weighing about 20 g
Pseudomonas aeruginosa No. 12
Intraperitoneal infection with about 5 × 10^3
(§10) cells per mouse suspended in trypto-soy
(§11) Twice, about 5 minutes and 6 hours after […]

[3] = tested on: Staphylococcus aureus No. 50774; assay: In vivo efficacy against the systemic infections in mice (Staphylococcus aureus); design: species or system mice (male ddY); settings: 336 h; Staphylococcus aureus No. 50774, intravenous infection; oral, twice, about 5 minutes and 6 hours after infection; observed 14 days
Experimental: as §1, §2, §3, §4, §5, §6, §7, §8, §9
Staphylococcus aureus No. 50774
Intravenous infection with about 5 × 10^8
cells per mouse suspended in saline
Twice, about 5 minutes and 6 hours after
Staphylococcus aureus No. 50774-for 14 days

[4] = tested on: Escherichia coli P-5101; assay: In vivo efficacy against the systemic infections in mice (Escherichia coli); design: species or system mice (male ddY); settings: P5101; Escherichia coli P-5101, intraperitoneal infection; oral, twice, about 5 minutes and 6 hours after infection
Experimental: as §1, §2, §3, §4, §5, §6, §7, §8, §9
Escherichia coli P-5101
Intraperitoneal infection with about 9 × 10^6
as §10, §11

[5] = tested on: Staphylococcus aureus No. 50774; assay: In vitro antibacterial activity (MIC), agar dilution method; type: cell-based
Experimental: (§12) *^3 In vitro antibacterial activity
(§13) The minimum inhibitory concentrations (MIC:
(§14) μg/ml) shown in Table 1 were determined according
(§15) to the agar dilution method recommended by Japan
(§16) Society of Chemotherpy (1980)

[6] = tested on: Escherichia coli P-5101; assay: as above; type: cell-based; settings: P5101
Experimental: as §12, §13, §14, §15, §16

[7] = tested on: Pseudomonas aeruginosa No. 12; assay: as above; type: cell-based
Experimental: as §12, §13, §14, §15, §16

SMILES	LD50 at 168 h [1] [mg/kg]	ED50 [2] [mg/kg]	ED50 [3] [mg/kg]	ED50 [4] [mg/kg]	MIC [5] [µg/mL]	MIC [6] [µg/mL]	MIC [7] [µg/mL]
CCn1cc(C(=O)O)c(=O)c2cc(F)c(-c3ccncc3)nc21 [Compound 1, 1-Ethyl-6-fluoro-1,4-dihydro-4-oxo-7-(4-pyridyl)-1,8-naphthyridine-3-carboxylic acid]	> 2000	12.2	2.84	3.1	0.2 (≈ 0.638 µM)	0.2 (≈ 0.638 µM)	3.13 (≈ 9.99 µM)
CCn1cc(C(=O)O)c(=O)c2ccc(-c3ccncc3)nc21 [Compound A, 1-ethyl-1,4-dihydro-4-oxo-7-(4-pyridyl)-1,8-naphthyridine-3-carboxylic acid]		> 100	23.7	21	1.56 (≈ 5.28 µM)	0.78 (≈ 2.64 µM)	12.5 (≈ 42.3 µM)
CCn1cc(C(=O)O)c(=O)c2ccc(C)nc21 [NA, 1-ethyl-1,4-dihydro-7-methyl-4-oxo-1,8-naphthyridine-3-carboxylic acid]		267	767		50 (≈ 215 µM)	3.13 (≈ 13.5 µM)	200 (≈ 861 µM)
